According to US11725011B2, “Bicyclic urea kinase inhibitors and uses thereof” (The Broad Institute, Inc., priority 2016, dated 2023):

What was measured:
Details in all cases: 1 uM
[1] = molecular target: PFPK5 (P. falciparum) (Plasmodium falciparum (isolate 3D7), UniProt P61075); experiment: KINOMEscan; format: binding
[2] = molecular target: JAK2 (JH1domain-catalytic) (Homo sapiens (Human), UniProt O60674); experiment: KINOMEscan; format: binding
[3] = molecular target: FES (Homo sapiens (Human), UniProt P07332); experiment: KINOMEscan; format: binding
[4] = molecular target: SNARK (Homo sapiens (Human), UniProt Q9H093); experiment: KINOMEscan; format: binding
[5] = molecular target: PLK4 (Homo sapiens (Human), UniProt O00444); experiment: KINOMEscan; format: binding
[6] = molecular target: EPHB2 (Homo sapiens (Human), UniProt P29323); experiment: KINOMEscan; format: binding
[7] = molecular target: WNK1 (Homo sapiens (Human), UniProt Q9H4A3); experiment: KINOMEscan; format: binding
[8] = molecular target: TGFBR2 (Homo sapiens (Human), UniProt P37173); experiment: KINOMEscan; format: binding
[9] = molecular target: TLK1 (Homo sapiens (Human), UniProt Q9UKI8); experiment: KINOMEscan; format: binding
[10] = molecular target: MYO3A (Homo sapiens (Human), UniProt Q8NEV4); experiment: KINOMEscan; format: binding
[11] = molecular target: LKB1 (Homo sapiens (Human), UniProt Q15831); experiment: KINOMEscan; format: binding
[12] = molecular target: YANK1 (Homo sapiens (Human), UniProt Q8WU08); experiment: KINOMEscan; format: binding
[13] = molecular target: PKAC-alpha (Homo sapiens (Human), UniProt P17612); experiment: KINOMEscan; format: binding
[14] = molecular target: KIT (D816V) (Homo sapiens (Human), UniProt P10721, D816V); experiment: KINOMEscan; format: binding
[15] = molecular target: FGR (Homo sapiens (Human), UniProt P09769); experiment: KINOMEscan; format: binding
[16] = molecular target: BMPR2 (Homo sapiens (Human), UniProt Q13873); experiment: KINOMEscan; format: binding
[17] = molecular target: EPHA3 (Homo sapiens (Human), UniProt P29320); experiment: KINOMEscan; format: binding
[18] = molecular target: TRKC (Homo sapiens (Human), UniProt Q16288); experiment: KINOMEscan; format: binding
[19] = molecular target: DYRK1B (Homo sapiens (Human), UniProt Q9Y463); experiment: KINOMEscan; format: binding
[20] = molecular target: RAF1 (Homo sapiens (Human), UniProt P04049); experiment: KINOMEscan; format: binding
[21] = molecular target: MAST1 (Homo sapiens (Human), UniProt Q9Y2H9); experiment: KINOMEscan; format: binding
[22] = molecular target: CAMK1D (Homo sapiens (Human), UniProt Q8IU85); experiment: KINOMEscan; format: binding
[23] = molecular target: MYLK2 (Homo sapiens (Human), UniProt Q9H1R3); experiment: KINOMEscan; format: binding
[24] = molecular target: DRAK2 (Homo sapiens (Human), UniProt O94768); experiment: KINOMEscan; format: binding
[25] = molecular target: PIK3CA (E545A) (Homo sapiens (Human), UniProt P42336, E545A); experiment: KINOMEscan; format: binding
[26] = molecular target: EGFR (L858R) (Homo sapiens (Human), UniProt P00533, L858R); experiment: KINOMEscan; format: binding
[27] = molecular target: RIPK1 (Homo sapiens (Human), UniProt Q13546); experiment: KINOMEscan; format: binding
[28] = molecular target: PKNB (M. tuberculosis) (Mycobacterium tuberculosis (strain ATCC 25618 / H37Rv), UniProt P9WI81)
[29] = molecular target: ERBB3 (Homo sapiens (Human), UniProt P21860); experiment: KINOMEscan; format: binding
[30] = molecular target: ABL1-phosphorylated (Homo sapiens (Human), UniProt P00519); experiment: KINOMEscan; format: binding
[31] = molecular target: CDK5 (Homo sapiens (Human), UniProt Q00535); experiment: KINOMEscan; format: binding
[32] = molecular target: AURKC (Homo sapiens (Human), UniProt Q9UQB9); experiment: KINOMEscan; format: binding
[33] = molecular target: NDR1 (Homo sapiens (Human), UniProt Q15208); experiment: KINOMEscan; format: binding
[34] = molecular target: p38-alpha (Homo sapiens (Human), UniProt Q16539); experiment: KINOMEscan; format: binding
[35] = molecular target: MAPKAPK5 (Homo sapiens (Human), UniProt Q8IW41); experiment: KINOMEscan; format: binding
[36] = molecular target: ROS1 (Homo sapiens (Human), UniProt P08922); experiment: KINOMEscan; format: binding
[37] = molecular target: CAMK1 (Homo sapiens (Human), UniProt Q14012); experiment: KINOMEscan; format: binding
[38] = molecular target: ABL1 (F317L)-nonphosphorylated (Homo sapiens (Human), UniProt P00519, F317L); experiment: KINOMEscan; format: binding
[39] = molecular target: AMPK-alpha1 (Homo sapiens (Human), UniProt Q13131); experiment: KINOMEscan; format: binding
[40] = molecular target: RSK3 (Kin.Dom.2-C-terminal) (Homo sapiens (Human), UniProt Q15349); experiment: KINOMEscan; format: binding

Sequence of YANK1 (Q8WU08 whole entry): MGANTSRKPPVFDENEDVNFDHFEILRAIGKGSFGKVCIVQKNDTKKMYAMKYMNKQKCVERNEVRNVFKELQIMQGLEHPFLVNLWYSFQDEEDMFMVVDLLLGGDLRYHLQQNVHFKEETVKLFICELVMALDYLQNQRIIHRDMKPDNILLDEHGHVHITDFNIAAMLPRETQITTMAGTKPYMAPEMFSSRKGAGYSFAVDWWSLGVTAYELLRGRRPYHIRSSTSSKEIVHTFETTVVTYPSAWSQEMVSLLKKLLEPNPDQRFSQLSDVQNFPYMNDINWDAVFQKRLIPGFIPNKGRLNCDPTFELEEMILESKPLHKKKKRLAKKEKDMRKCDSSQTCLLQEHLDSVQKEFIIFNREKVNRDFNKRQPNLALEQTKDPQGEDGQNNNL
Sequence of ERBB3 (P21860 20-1342): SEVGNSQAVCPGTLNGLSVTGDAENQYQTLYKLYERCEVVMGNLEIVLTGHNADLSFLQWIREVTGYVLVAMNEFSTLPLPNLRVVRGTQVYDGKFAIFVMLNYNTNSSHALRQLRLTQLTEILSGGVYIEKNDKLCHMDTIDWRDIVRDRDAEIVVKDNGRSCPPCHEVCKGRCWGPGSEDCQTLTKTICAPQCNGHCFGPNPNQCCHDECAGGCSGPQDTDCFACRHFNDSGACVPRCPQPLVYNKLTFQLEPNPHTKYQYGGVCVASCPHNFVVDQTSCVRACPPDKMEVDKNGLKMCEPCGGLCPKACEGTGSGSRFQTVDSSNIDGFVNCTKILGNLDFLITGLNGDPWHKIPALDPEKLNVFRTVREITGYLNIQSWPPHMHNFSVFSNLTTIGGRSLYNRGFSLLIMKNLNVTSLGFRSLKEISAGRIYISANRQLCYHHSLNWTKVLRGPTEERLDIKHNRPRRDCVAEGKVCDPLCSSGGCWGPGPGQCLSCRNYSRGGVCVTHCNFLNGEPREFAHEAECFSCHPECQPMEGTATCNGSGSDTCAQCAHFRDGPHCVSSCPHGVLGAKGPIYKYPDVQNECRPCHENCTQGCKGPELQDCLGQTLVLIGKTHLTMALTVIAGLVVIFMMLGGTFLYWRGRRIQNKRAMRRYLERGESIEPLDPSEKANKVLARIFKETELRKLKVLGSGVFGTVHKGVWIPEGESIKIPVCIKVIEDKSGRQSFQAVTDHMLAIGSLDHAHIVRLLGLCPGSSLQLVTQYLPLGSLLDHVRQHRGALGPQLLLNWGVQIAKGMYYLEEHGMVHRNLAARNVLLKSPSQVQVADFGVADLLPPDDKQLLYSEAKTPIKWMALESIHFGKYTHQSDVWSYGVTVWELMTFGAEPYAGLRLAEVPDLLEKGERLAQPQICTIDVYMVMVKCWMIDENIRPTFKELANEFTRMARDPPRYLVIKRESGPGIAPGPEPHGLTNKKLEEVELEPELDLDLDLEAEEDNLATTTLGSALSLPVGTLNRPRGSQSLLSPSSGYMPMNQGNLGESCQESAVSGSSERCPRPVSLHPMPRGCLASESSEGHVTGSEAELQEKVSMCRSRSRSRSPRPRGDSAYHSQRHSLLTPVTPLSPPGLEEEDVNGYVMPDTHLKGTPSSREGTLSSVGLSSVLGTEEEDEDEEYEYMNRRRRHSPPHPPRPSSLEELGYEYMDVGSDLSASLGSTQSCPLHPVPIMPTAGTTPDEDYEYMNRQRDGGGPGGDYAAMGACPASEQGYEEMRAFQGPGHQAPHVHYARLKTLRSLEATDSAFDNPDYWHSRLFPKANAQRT
Sequence of TRKC (Q16288 32-839): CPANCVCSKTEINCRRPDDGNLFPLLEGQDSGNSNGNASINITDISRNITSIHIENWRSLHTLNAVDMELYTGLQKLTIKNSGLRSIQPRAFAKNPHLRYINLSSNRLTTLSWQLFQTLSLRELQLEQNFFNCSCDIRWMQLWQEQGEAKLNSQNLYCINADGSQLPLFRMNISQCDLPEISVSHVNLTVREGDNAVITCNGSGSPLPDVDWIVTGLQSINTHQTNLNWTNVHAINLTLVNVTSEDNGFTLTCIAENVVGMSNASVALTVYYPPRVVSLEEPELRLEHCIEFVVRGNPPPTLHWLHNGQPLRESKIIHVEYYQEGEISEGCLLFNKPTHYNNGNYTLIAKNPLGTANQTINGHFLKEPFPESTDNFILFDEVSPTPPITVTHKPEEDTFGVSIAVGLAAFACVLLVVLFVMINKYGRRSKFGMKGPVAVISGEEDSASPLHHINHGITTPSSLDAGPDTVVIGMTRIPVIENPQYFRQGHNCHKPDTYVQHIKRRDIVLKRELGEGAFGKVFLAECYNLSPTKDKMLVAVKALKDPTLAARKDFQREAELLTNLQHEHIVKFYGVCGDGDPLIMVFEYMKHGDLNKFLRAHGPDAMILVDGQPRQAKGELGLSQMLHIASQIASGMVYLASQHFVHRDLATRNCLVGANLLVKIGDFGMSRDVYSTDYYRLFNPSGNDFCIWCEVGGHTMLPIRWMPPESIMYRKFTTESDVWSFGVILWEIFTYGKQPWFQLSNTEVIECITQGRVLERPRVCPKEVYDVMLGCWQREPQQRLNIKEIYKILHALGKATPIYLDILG
Sequence of CDK5 (Q00535 whole entry): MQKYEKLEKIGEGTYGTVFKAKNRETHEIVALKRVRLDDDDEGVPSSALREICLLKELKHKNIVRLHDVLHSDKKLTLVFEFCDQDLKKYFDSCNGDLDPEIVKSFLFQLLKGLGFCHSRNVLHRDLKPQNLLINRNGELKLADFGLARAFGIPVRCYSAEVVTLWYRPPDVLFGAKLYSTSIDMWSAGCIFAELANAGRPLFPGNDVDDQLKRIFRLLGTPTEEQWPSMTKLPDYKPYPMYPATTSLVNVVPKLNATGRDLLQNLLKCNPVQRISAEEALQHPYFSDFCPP
Sequence of JAK2 (JH1domain-catalytic) (O60674 849-1124): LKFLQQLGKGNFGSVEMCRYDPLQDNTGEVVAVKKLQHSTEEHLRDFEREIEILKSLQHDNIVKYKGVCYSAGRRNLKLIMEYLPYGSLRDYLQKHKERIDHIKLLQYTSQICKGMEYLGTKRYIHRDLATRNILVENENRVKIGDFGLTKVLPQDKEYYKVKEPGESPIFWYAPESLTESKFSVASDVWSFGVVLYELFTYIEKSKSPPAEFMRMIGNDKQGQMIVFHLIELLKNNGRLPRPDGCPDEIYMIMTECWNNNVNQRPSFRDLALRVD
Sequence of p38-alpha (Q16539 whole entry): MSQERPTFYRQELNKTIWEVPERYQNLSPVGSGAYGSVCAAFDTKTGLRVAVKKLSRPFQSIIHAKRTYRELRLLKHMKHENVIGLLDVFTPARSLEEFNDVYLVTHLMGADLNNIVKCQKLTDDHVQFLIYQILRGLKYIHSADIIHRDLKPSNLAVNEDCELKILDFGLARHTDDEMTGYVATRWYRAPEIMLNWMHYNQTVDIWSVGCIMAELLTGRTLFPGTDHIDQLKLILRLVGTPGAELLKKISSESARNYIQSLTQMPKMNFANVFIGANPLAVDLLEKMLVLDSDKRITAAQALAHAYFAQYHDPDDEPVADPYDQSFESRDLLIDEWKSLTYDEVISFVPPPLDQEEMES
Sequence of RAF1 (P04049 whole entry): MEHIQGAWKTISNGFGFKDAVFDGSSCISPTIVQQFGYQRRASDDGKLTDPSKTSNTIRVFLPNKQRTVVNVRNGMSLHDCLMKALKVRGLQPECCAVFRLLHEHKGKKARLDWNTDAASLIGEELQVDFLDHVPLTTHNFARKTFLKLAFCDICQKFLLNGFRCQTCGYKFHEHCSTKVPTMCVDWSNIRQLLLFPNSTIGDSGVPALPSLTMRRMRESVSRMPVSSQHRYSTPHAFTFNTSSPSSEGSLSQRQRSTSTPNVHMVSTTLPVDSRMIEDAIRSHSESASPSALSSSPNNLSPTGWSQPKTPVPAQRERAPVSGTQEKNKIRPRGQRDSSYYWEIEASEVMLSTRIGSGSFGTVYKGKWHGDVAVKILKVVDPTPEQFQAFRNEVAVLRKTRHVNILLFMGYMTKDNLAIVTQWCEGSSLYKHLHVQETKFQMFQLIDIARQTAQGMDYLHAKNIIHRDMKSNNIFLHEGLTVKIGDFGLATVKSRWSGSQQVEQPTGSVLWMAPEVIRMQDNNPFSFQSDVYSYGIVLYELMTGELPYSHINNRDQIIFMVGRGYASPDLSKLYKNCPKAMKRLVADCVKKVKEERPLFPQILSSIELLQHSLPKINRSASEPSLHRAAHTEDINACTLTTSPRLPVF
Sequence of DRAK2 (O94768 whole entry): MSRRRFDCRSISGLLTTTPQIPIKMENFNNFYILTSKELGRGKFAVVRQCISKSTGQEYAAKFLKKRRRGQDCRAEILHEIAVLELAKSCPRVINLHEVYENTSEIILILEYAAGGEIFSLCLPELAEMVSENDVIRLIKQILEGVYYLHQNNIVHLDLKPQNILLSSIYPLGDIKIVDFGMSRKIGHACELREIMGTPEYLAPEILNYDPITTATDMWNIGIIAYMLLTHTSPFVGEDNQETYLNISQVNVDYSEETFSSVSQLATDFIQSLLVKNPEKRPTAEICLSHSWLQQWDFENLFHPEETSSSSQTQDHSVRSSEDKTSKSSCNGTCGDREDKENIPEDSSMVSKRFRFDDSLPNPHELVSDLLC
Sequence of AURKC (Q9UQB9 whole entry): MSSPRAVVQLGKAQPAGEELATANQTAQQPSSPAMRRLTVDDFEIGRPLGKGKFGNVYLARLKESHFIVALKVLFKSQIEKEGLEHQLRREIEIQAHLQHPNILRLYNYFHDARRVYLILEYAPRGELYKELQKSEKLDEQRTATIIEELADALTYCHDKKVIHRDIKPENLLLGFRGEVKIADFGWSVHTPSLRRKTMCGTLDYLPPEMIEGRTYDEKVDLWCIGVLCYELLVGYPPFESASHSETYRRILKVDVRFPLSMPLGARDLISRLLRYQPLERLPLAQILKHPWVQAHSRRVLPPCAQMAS

COc1ccc(N2C(=O)N(c3c(C)cccc3C)Cc3cnc(Nc4ccc(N5CCN(C)CC5)cc4)nc32)c(OC)c1 [HG-11-136-01]
KINOMEscan PFPK5 (P. falciparum) [1]: 96 | KINOMEscan JAK2 (JH1domain-catalytic) [2]: 0.75 | KINOMEscan FES [3]: 0 | KINOMEscan SNARK [4]: 0.4 | KINOMEscan PLK4 [5]: 18 | KINOMEscan EPHB2 [6]: 0 | KINOMEscan WNK1 [7]: 89 | KINOMEscan TGFBR2 [8]: 38 | KINOMEscan TLK1 [9]: 76 | KINOMEscan MYO3A [10]: 40 | KINOMEscan LKB1 [11]: 69 | KINOMEscan YANK1 [12]: 0.2 | KINOMEscan PKAC-alpha [13]: 85 | KINOMEscan KIT (D816V) [14]: 0.2 | KINOMEscan FGR [15]: 0 | KINOMEscan BMPR2 [16]: 77 | KINOMEscan EPHA3 [17]: 0.8 | KINOMEscan TRKC [18]: 71 | KINOMEscan DYRK1B [19]: 60 | KINOMEscan RAF1 [20]: 93 | KINOMEscan MAST1 [21]: 62 | KINOMEscan CAMK1D [22]: 68 | KINOMEscan MYLK2 [23]: 81 | KINOMEscan DRAK2 [24]: 100 | KINOMEscan PIK3CA (E545A) [25]: 69 | KINOMEscan EGFR (L858R) [26]: 0.1 | KINOMEscan RIPK1 [27]: 35 | KINOMEscan PKNB (M. tuberculosis) [28]: 6.6 | KINOMEscan ERBB3 [29]: 0 | KINOMEscan ABL1-phosphorylated [30]: 0 | KINOMEscan CDK5 [31]: 100 | KINOMEscan AURKC [32]: 33 | KINOMEscan NDR1 [33]: 46 | KINOMEscan p38-alpha [34]: 1 | KINOMEscan MAPKAPK5 [35]: 96 | KINOMEscan ROS1 [36]: 63 | KINOMEscan CAMK1 [37]: 82 | KINOMEscan ABL1 (F317L)-nonphosphorylated [38]: 0 | KINOMEscan AMPK-alpha1 [39]: 33 | KINOMEscan RSK3 (Kin.Dom.2-C-terminal) [40]: 67
